From PubChem BioAssay (NCI) come the findings set out here.

Where “and” joins values, the source holds several entries; their conditions need not be identical. Equal entries are not always repeated.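 Following 48 hours of exposure in 96-well plates, responses at five concentrations were used to interpolate endpoints linearly. Abbreviation: GI50, concentration required for 50% inhibition of growth. TGI: total growth inhibition.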 A value given as a limit tells only on which side of the number the result lay.

Some test systems named below: MOLT-4 leukemia; SR leukemia; SK-MEL-5 melanoma; SNB-75 CNS; UACC-257 melanoma; HL-60(TB) leukemia; U251 CNS; HCC-2998 colon; EKVX NSCLC; SK-OV-3 ovarian.
Holding throughout (assay): NCI anticancer screen, dose series, 48 h

As for `N#Cc1ccc2oc3ccc(C#N)cc3c(=O)c2c1`, the TGI in the assay on MOLT-4 leukemia is 46.9 µM; with SR leukemia, over 100 µM; with SK-MEL-5 melanoma it was 17.6 µM; with SNB-75 CNS, 58.6 µM; in the assay with UACC-257 melanoma, over 100 µM; in the assay on HL-60(TB) leukemia, 38.5 µM. Besides, the TGI is 31.7 µM in the assay with U251 CNS and over 100 µM in the assay on HCC-2998 colon.
Consider `CC1=N/C(=C\c2ccc([N+](=O)[O-])cc2)C(=O)O1`, for which the TGI with MOLT-4 leukemia, with SK-MEL-5 melanoma, in the assay with EKVX NSCLC, in the assay on UACC-257 melanoma, in the assay with HL-60(TB) leukemia and in the assay on U251 CNS was over 100 µM each time. The TGI in the assay on HCC-2998 colon was over 100 µM.
As to `CCCCC#Cc1cccc(=O)o1`, the GI50 with MOLT-4 leukemia was 3.62 µM; in the assay on SK-MEL-5 melanoma, 3.71 µM; in the assay with EKVX NSCLC, 12.4 µM; in the assay with SK-OV-3 ovarian it was over 100 µM; with UACC-257 melanoma, 30.9 µM; in the assay on HL-60(TB) leukemia, 1860 nM. Further, the TGI in the assay on MOLT-4 leukemia is over 100 µM; with SK-MEL-5 melanoma it was 26.6 µM; in the assay with EKVX NSCLC it was over 100 µM; in the assay on SK-OV-3 ovarian it was over 100 µM; in the assay with UACC-257 melanoma it was over 100 µM; in the assay with HL-60(TB) leukemia, over 100 µM.
For the compound `C=C1CO[C@@H]2C[C@@H]1CCC1(C)OC1CC/C(C)=C/CC[C@@]2(C)O` (stereo partly drawn), the GI50 with MOLT-4 leukemia was 17.1 µM; in the assay on SR leukemia, 1290 nM; in the assay with SK-MEL-5 melanoma it was 15.4 µM; with SNB-75 CNS, 21.7 µM; in the assay on EKVX NSCLC, 18.7 µM; in the assay with SK-OV-3 ovarian, over 100 µM. Besides, the GI50 in the assay with UACC-257 melanoma is 44.7 µM; in the assay with U251 CNS it was 37.6 µM; with HCC-2998 colon, 43.1 µM. The TGI with MOLT-4 leukemia was 39.1 µM; with SR leukemia it was 2.72 µM; in the assay on SK-MEL-5 melanoma, 29.4 µM; in the assay on SNB-75 CNS it was 97.4 µM; in the assay on EKVX NSCLC, 43.9 µM; in the assay on SK-OV-3 ovarian it was over 100 µM. The TGI in the assay on UACC-257 melanoma is over 100 µM; with U251 CNS, over 74.2 µM; with HCC-2998 colon, over 84 µM.
With `Cc1nc2ccc(NCCN(C)C)c3c(=O)c4cc(O)ccc4n1c23`, the TGI in the assay on MOLT-4 leukemia was determined as 0.904 µM; in the assay on SR leukemia, 0.248 µM; in the assay on SK-MEL-5 melanoma, 10.5 µM; in the assay with SNB-75 CNS it was 5.63 µM; with SK-OV-3 ovarian, 8.98 µM; with UACC-257 melanoma, 13.6 µM. In addition, the TGI in the assay with HL-60(TB) leukemia came out at 3.1 µM; in the assay on U251 CNS, 11.7 µM; with HCC-2998 colon, 1.71 µM.
With `O=[N+]([O-])c1ccc(O)c2ncccc12`, the TGI in the assay with MOLT-4 leukemia was > 100 µM and 10.4 µM; in the assay on SR leukemia it was 9.29 µM; with SNB-75 CNS, > 100 µM and 26 µM; in the assay on EKVX NSCLC it was > 100 µM and 17.9 µM; in the assay on SK-OV-3 ovarian it was > 100 µM and 15.7 µM; with U251 CNS, > 100 µM and 13.3 µM. Further, the TGI with HCC-2998 colon is 18.5 µM. Besides, the GI50 in the assay with SR leukemia is 3010 nM; in the assay with HCC-2998 colon it was 5.21 µM.
Turning to `CC(=O)OC1=C2C(CC3C4CC=C5CC(OC(C)=O)CCC5(C)C4CCC23C)C2C(=O)N(Cc3ccccc3)C(=O)C2C1` (stereo not drawn), the GI50 is 2.93 µM with MOLT-4 leukemia; 3620 nM in the assay with SR leukemia; 2.1 µM in the assay with SK-MEL-5 melanoma; 5.54 µM in the assay on SNB-75 CNS; 17.7 µM with SK-OV-3 ovarian; 10.9 µM in the assay with UACC-257 melanoma. Further, the figures for the GI50 in the assay on HL-60(TB) leukemia and with HCC-2998 colon were 3650 nM and 11.4 µM, respectively. Further, the TGI in the assay on MOLT-4 leukemia is 8.37 µM; with SR leukemia it was 16.6 µM; in the assay on SK-MEL-5 melanoma, 4.79 µM; with SNB-75 CNS it was 86.5 µM; in the assay with SK-OV-3 ovarian it was over 100 µM; in the assay with UACC-257 melanoma it was over 100 µM. Also, the TGI worked out at 17.8 µM in the assay with HL-60(TB) leukemia and 67 µM in the assay with HCC-2998 colon.
In the case of `c1ccc2c(c1)ccc1c3ccccc3ccc21`, the GI50 in the assay with MOLT-4 leukemia is over 50 µM; in the assay with SK-MEL-5 melanoma, over 50 µM; with SNB-75 CNS, over 50 µM; with SK-OV-3 ovarian it was over 50 µM; in the assay on UACC-257 melanoma it was over 50 µM; in the assay on HL-60(TB) leukemia, over 50000 nM. Besides, the GI50 in the assay on U251 CNS and in the assay with HCC-2998 colon was over 50 µM throughout. The TGI in the assay with MOLT-4 leukemia, with SK-MEL-5 melanoma, in the assay on SNB-75 CNS, with SK-OV-3 ovarian, in the assay on UACC-257 melanoma and with HL-60(TB) leukemia was over 50 µM each time. Besides, the TGI in the assay with U251 CNS and in the assay on HCC-2998 colon was over 50 µM each time.
Take `COc1ccc(-c2nn(-c3cccc(NC(=O)Nc4cccc(C(F)(F)F)c4)c3)cc2-c2ccncc2)cc1Cl`: the GI50 is 1.76 µM with MOLT-4 leukemia; 1310 nM with SR leukemia; 1.57 µM with SK-MEL-5 melanoma; 1.51 µM in the assay on SNB-75 CNS; 3.58 µM with SK-OV-3 ovarian; 2.28 µM in the assay on UACC-257 melanoma. Also, the GI50 in the assay with HL-60(TB) leukemia is 1950 nM; in the assay with U251 CNS, 1.06 µM; in the assay on HCC-2998 colon, 5.32 µM. Further, the TGI with MOLT-4 leukemia is 8.38 µM; in the assay on SR leukemia it was 4.84 µM; in the assay on SK-MEL-5 melanoma, 3.22 µM; with SNB-75 CNS, 8.37 µM; with SK-OV-3 ovarian it was over 100 µM; in the assay with UACC-257 melanoma, 10.8 µM. Further, the TGI in the assay with HL-60(TB) leukemia is 6.26 µM; with U251 CNS it was 3.98 µM; with HCC-2998 colon it was over 100 µM.
In the case of `COc1ccc(-c2c(C#N)c(N)nc3c2CCCc2ccc(F)cc2-3)cc1OC`, the GI50 in the assay with MOLT-4 leukemia is under 0.01 µM; in the assay on SNB-75 CNS it was 1.36 µM; in the assay on EKVX NSCLC, 0.0861 µM; in the assay with SK-OV-3 ovarian, 4.27 µM; in the assay on HL-60(TB) leukemia, under 10 nM; in the assay with U251 CNS it was under 0.0501 µM. In addition, in the assay with HCC-2998 colon, the GI50 is 0.354 µM. Also, the TGI was over 100 µM with MOLT-4 leukemia; 0.483 µM in the assay on SK-MEL-5 melanoma; over 100 µM with SNB-75 CNS; over 92.3 µM with SK-OV-3 ovarian; over 78.5 µM in the assay with UACC-257 melanoma; over 100 µM in the assay with HL-60(TB) leukemia. The same compound had a TGI in the assay on HCC-2998 colon of 14.4 µM.
As to `CN(C)CCNC(=O)c1cccc2c1nc(-c1ccccn1)c1ccccc12`, the TGI in the assay on SK-MEL-5 melanoma is 28.7 µM; with SNB-75 CNS, 47.1 µM; in the assay on EKVX NSCLC, 65.2 µM; with SK-OV-3 ovarian it was 37.3 µM; in the assay on UACC-257 melanoma it was 30.4 µM; in the assay with HL-60(TB) leukemia, 34.8 µM. In addition, the TGI was determined as 34.5 µM with U251 CNS and 32.4 µM with HCC-2998 colon.
As for `Cc1nn(C)c(=S)n(C)c1=O`, the TGI with MOLT-4 leukemia was over 100 µM; with SNB-75 CNS, 2.73 µM; in the assay with EKVX NSCLC it was 44.9 µM; with SK-OV-3 ovarian it was 42.8 µM; with UACC-257 melanoma, 11.2 µM; in the assay with HL-60(TB) leukemia it was 6.47 µM. The values for the TGI in the assay with U251 CNS and with HCC-2998 colon were 30.1 µM and over 100 µM, respectively.
